Data set [1] relates to primary mouse hepatocytes. As for the experimental part: Next it was analyzed if the modified doxorubicin is still cytotoxic to cells. In this experiment primary mouse hepatocytes isolated from C57BL/6 mice as described in Galle et al., (1994) (37) were incubated and reseeded in 96 well flat bottom plates to form a confluent cell layer. […] The cells were then incubated for 12 h (FIG. 6A) or 24 h (FIG. 6B), respectively. After incubation an MTT assay (Cell proliferation Kit, Roche Mannheim Germany) was performed as indicated by the manufacturer's instructions to determine remaining cell viability. The results are shown in FIGS. 6A and 6B (Cell Viability Assay).

How the values of data set [2] were obtained: The peptide stearoyl-[K(DOTA[^68Ga])]3-[…] (SEQ ID NO:15)-amide was dissolved in citrate buffer (pH 8.0)+4% BSA and injected i.v. in the tail vene of tumour bearing WAG/Rij rats. The rats were orthopically injected with 1×10^6 syngenic colon carcinoma cells (CC531 cells) 10 days prior to the measurements. At the day of measurement the rats received the peptide in a concentration of 400 nmol/kg body weight. During the experiments the rats were anaesthetised by isoflurane and kept at 37° C.

`COc1cccc2c1C(=O)c1c(O)c3c(c(O)c1C2=O)C[C@@](O)(C(=O)CO)C[C@@H]3O[C@H]1C[C@H](N)[C@H](O)[C@H](C)O1` [doxorubicin]: the cytotoxic activity entry in the data set with HepG2 cells is listed as “significant cytotoxicity”. In addition, in data set [1], the cytotoxic effects result was “significant cytotoxic effects”.
With `CCCCCCCCCCCCCCCCCC(=O)N[C@@H](CCCCNC(=O)CN1CCN(CC(=O)O)CCN(CC(=O)O)CCN(CC(=O)O)CC1)C(=O)N[C@@H](CCCCNC(=O)CN1CCN(CC(=O)O)CCN(CC(=O)O)CCN(CC(=O)O)CC1)C(=O)N[C@@H](CCCCNC(=O)CN1CCN(CC(=O)O)CCN(CC(=O)O)CCN(CC(=O)O)CC1)C(=O)N[C@@H](CC(N)=O)C(=O)N[C@@H](CC(C)C)C(=O)N[C@@H](CO)C(=O)N[C@H](C(=O)N[C@@H](CO)C(=O)N[C@@H](CC(N)=O)C(=O)N1CCC[C@H]1C(=O)N[C@@H](CC(C)C)C(=O)NCC(=O)N[C@@H](Cc1ccccc1)C(=O)N[C@@H](Cc1ccccc1)C(=O)N1CCC[C@H]1C(=O)N[C@@H](CC(=O)O)C(=O)N[C@@H](Cc1c[nH]cn1)C(=O)N[C@@H](CCC(N)=O)C(=O)N[C@@H](CC(C)C)C(=O)N[C@@H](CC(=O)O)C(=O)N1CCC[C@H]1C(N)=O)[C@@H](C)O`, the “enrichment in the liver (PET)” value in data set [2] (400 nmol/kg i.v., WAG/Rji rat, five minutes post i.v. injection (FIG. 4A)) is given as “Specific enrichment”. In addition, in data set [2] (tumour bearing rat (CC531 colon carcinoma), FIG. 4C), the “specificity of staining, liver tissue vs tumor tissue (merged PET images)” value is reported as “staining only liver tissue but not the tumor tissue”.
